These results are taken from ChEMBL document CHEMBL4834430, “Design and Structure-Activity Relationships of Isothiocyanates as Potent and Selective N-Acylethanolamine-Hydrolyzing Acid Amidase Inhibitors” (J Med Chem, 2021).

Structures are written as SMILES. Activity calls are given as the source filed them. The rule behind the calls is not given here.

Data set [1] in a line: Drug concentration in brain of CD-1 mouse at 2 mg/kg, iv administered as single cassette dose measured after 15 mins. Type of data set: ADME, organism-based. Particulars: read-out: Ct.
For data set [2], the target named is Sodium-dependent noradrenaline transporter (Homo sapiens) (UniProt P23975). The data set is described as follows: Inhibition of NET (unknown origin) at 10 uM.
Chain of Sodium-dependent noradrenaline transporter (Homo sapiens) (P23975 whole entry): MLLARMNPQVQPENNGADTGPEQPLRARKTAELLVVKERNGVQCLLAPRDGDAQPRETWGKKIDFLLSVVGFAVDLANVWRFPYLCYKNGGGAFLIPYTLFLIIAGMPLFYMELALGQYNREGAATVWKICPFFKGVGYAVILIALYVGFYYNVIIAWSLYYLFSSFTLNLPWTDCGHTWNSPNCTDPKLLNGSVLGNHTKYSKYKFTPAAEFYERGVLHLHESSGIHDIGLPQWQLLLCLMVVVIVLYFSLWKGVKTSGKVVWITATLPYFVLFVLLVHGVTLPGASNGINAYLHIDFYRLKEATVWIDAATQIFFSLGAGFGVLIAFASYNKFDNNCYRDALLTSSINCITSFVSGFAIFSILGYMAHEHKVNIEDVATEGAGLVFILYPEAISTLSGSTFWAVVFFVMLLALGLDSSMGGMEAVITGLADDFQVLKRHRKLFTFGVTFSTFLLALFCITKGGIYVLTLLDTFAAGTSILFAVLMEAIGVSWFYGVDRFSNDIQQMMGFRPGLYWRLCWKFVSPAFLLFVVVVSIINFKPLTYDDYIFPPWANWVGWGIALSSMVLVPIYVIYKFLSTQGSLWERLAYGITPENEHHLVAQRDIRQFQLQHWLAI
The next data set has as its target Cytochrome P450 2D6 (Homo sapiens, UniProt P10635). The data set is described as follows: Inhibition of CYP2D6 (unknown origin) at 10 uM. The class given is ADME.
For data set [3], the target named is T1, N-acylethanolamine-hydrolyzing acid amidase (Homo sapiens, UniProt Q02083).
T1 sequence (Q02083 whole entry): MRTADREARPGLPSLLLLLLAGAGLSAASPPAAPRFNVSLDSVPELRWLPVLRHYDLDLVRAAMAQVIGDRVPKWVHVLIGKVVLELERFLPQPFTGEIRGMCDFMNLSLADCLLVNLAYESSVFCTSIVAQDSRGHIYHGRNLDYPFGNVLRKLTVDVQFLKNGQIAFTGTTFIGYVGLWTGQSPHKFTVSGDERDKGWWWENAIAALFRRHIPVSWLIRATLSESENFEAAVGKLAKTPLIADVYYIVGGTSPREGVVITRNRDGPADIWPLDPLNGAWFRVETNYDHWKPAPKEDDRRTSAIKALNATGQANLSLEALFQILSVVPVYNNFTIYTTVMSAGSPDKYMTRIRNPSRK
In words: Inhibition of human NAAA using N-(4-methyl coumarin)-palmitamide as fluorogenic substrate preincubated for 90 mins followed by substrate addition by fluorescence assay.

Data set [4] is described as follows: Volume of distribution in CD-1 mouse plasma at 2 mg/kg, iv measured up to 8 hrs. The class given is ADME, organism-based.
The next data set concerns the target T2, Cathepsin K (Homo sapiens, UniProt P43235).
T2 sequence (P43235 whole entry): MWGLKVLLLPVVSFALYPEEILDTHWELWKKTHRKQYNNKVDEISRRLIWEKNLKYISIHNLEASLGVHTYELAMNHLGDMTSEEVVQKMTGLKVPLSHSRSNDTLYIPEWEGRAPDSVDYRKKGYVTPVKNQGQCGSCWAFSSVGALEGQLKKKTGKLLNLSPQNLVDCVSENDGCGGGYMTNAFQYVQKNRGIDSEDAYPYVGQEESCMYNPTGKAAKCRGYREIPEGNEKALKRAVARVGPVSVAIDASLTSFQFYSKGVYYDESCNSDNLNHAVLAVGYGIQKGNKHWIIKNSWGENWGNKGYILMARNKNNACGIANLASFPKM
The data set is described as follows: Inhibition of recombinant human Cathepsin K using Z-Phe-Arg-AMC as fluorogenic substrate preincubated for 120 mins followed by substrate addition by fluorescence assay.

Data set [5] is described as follows: Mutagenecity in Salmonella typhimurium TA98 in presence of S9 fraction at 5 to 100 uM by Ames test. Type of data set: toxicity, subcellular. Particulars: salmonella enterica subsp. enterica serovar typhimurium, s9, 100 µM; dose 5-100 µM.
Data set [6] is described as follows: AUC in CD-1 mouse brain at 2 mg/kg, iv measured up to 6 hrs. Type of data set: ADME, organism-based. Also noted: route intravenous, dose 2 mg/kg, time <=6.
The nature of data set [7]: Volume of distribution in CD-1 mouse plasma at 8 mg/kg, po measured up to 8 hrs. Type of data set: ADME, organism-based. Particulars: in vivo.
Data set [8] is described as follows: Drug concentration in plasma of CD-1 mouse at 8 mg/kg, po administered as single cassette dose measured after 30 mins. Type of data set: ADME, organism-based.
A short description of data set [9]: Mutagenecity in Salmonella typhimurium TA1537 in absence of S9 fraction at 5 to 100 uM by Ames test. Type of data set: toxicity. Conditions: salmonella enterica subsp. enterica serovar typhimurium, s9, 100 µM; dose 5-100 µM.

Chain of Cytochrome P450 2D6 (P10635 whole entry): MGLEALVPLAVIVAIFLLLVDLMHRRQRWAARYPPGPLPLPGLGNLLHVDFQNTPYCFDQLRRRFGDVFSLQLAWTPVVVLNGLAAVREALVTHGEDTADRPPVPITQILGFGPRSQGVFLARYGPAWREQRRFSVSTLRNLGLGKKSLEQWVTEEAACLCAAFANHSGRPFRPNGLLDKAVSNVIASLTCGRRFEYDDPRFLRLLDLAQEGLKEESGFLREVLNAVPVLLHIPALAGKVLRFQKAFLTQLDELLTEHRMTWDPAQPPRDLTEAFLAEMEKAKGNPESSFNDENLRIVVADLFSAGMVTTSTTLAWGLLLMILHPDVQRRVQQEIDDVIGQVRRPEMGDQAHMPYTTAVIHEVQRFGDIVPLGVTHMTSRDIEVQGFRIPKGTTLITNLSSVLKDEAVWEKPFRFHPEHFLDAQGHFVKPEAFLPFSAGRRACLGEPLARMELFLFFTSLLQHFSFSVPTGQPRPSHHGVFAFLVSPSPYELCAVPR

For the molecule `COc1ccc(-c2ccc(CO[C@H]3C[C@@H](N=C=S)C3)nc2)cc1F`, the concentration at 0.25 h in data set [1] is 873 ng/g. The inhibition result in data set [2] is “inactive”. For the same molecule, the “inhibition (INH)” value on Cytochrome P450 2D6 is reported as “Not Active”. The IC50 in data set [3] was 20 nM; on Cathepsin K, 120 nM. Further, the Vd in data set [4] was 27 L/kg; in [7], 126 L/kg. For the same molecule, the Activity result in data set [5] and in [9] was “Non-Toxic” throughout. The AUC at 6 h in [6] is 298 ng·h/mL. Also, the concentration at 0.5 h in data set [8] was 16 ng/mL.
